From patent US20130029970A1 (priority 2009, published 2013)
Read-outs that look alike come from different tables or passages of the source.

What was measured:
[1] = target: T1, recombinant human cannabinoid receptor CB1 (Homo sapiens, UniProt P21554); experiment: Cannabinoid receptor radioligand binding assay, [3H]-CP 55,940 displacement, hCB1
T1 construct: (cDNA clone) CNR01L000
Procedure, shortened: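 Displacement of 0.5 nM [3H]-CP 55,940 (1 μM unlabeled CP 55,940 for nonspecific) measured by filtration and scintillation counting. Binding ran 90 min at room temperature in pH 7.5 Tris buffer with 0.1% fatty-acid-free BSA, using recombinant hCB1 HEK-293 membranes at 2-10 μg protein.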

[2] = target: T2, human CB1 receptors (Homo sapiens, UniProt P21554); experiment: cAMP assay in HEK-293 cells, hCB1 agonist; assay type: cell-based; settings: inhibition of forskolin-stimulated cAMP, HEK-293 cells; for EC50: read-out: hCB1 EC50 (cAMP ag)
T2 construct: (cDNA clone) CNR01L000
Procedure, shortened: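 Agonist EC50 taken as concentration giving half inhibition of forskolin-driven cAMP, normalized to forskolin maximum, from sigmoidal curves. Whole HEK-293 cells stably expressing hCB1, in HEPES/BSA-containing HBSS, exposed 30 min at 37° C. to compound with forskolin (90 uM in 3× dilution); cAMP read after lysis.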

[3] = target: T3, human CB2 receptors (Homo sapiens, UniProt P34972); experiment: cAMP assay in HEK-293 cells, hCB2 agonist; assay type: cell-based
T3 construct: (cDNA clone) CNR0200000
Procedure, shortened: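 Stable hCB2 HEK-293 cells in HBSS/10 mM HEPES/0.1% fatty-acid-free BSA incubated 30 min at 37° C with compound; forskolin 90 uM in 3× compound mix.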

[4] = inhibition of forskolin-stimulated cAMP, HEK-293 cells, read-out: hCB2 EC50 (cAMP ag)

T1 sequence (P21554 whole entry): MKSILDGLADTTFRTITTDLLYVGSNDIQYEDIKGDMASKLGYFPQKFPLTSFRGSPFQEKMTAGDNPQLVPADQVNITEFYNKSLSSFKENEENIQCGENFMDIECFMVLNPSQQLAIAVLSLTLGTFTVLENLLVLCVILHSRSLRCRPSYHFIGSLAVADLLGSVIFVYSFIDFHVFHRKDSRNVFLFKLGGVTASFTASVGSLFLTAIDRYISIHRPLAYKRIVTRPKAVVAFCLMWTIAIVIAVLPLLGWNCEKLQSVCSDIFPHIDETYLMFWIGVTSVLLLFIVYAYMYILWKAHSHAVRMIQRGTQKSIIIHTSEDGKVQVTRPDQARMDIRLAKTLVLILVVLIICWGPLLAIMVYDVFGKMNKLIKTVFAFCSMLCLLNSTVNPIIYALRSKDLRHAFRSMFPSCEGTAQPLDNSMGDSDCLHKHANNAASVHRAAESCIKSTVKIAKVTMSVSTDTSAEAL
T2 sequence (P21554 whole entry): as above
T3 sequence (P34972 whole entry): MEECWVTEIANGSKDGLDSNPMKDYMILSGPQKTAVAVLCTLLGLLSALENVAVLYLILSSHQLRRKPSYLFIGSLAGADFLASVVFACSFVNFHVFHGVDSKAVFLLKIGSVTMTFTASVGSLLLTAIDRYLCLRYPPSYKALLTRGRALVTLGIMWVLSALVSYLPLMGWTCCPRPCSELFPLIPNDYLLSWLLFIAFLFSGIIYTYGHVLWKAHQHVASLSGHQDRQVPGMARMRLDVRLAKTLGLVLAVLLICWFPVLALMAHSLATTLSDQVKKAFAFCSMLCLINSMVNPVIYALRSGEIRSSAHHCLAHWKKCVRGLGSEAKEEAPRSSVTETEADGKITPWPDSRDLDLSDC

Compound: CCOc1ccc(C(=O)c2cc3cc(C)n(CCN4CCOCC4)c3s2)cc1 [Compound 55, (4-Ethoxyphenyl)(5-methyl-6-(2-morpholinoethyl)-6H-thieno[2,3-b]pyrrol-2-yl)methanone]
- IC50 [1]: 1000 to 10000 nM
- EC50 [2]: 1000 to 10000 nM
- EC50 [3]: < 100 nM

Compound: COCCn1c(C)cc2cc(C(=O)c3cccc(Cl)c3Cl)sc21 [Compound 21, (2,3-Dichlorophenyl)(6-(2-methoxyethyl)-5-methyl-6H-thieno[2,3-b]pyrrol-2-yl)methanone]
- IC50 [1]: 100 to 1000 nM
- EC50 [2]: 1000 to 10000 nM
- EC50 [3]: < 100 nM

Compound: COc1ccccc1C(=O)c1cc2cc(C)n(CCN3CCOCC3)c2s1 [Compound 13, (2-Methoxyphenyl)(5-methyl-6-(2-morpholinoethyl)-6H-thieno[2,3-b]pyrrol-2-yl)methanone]
- IC50 [1]: 100 to 1000 nM
- EC50 [2]: 100 to 1000 nM
- EC50 [3]: < 100 nM

Compound: Cc1ccc(C(=O)c2cc3cc(C)n(CCN4CCOCC4)c3s2)c(F)c1 [Compound 80, (2-Fluoro-4-methylphenyl)(5-methyl-6-(2-morpholinoethyl)-6H-thieno[2,3-b]pyrrol-2-yl)methanone]
- IC50 [1]: 1000 to 10000 nM
- hCB1 EC50 (cAMP ag, nM) [2]: NS (NS means “Not Significant,” which means less than 30% agonist activity when compared to the positive control.)
- EC50 [3]: < 100 nM

Compound: Cc1cc2cc(C(=O)c3ccccc3Cl)sc2n1CCN1CCOCC1 [Compound 5, (2-Chlorophenyl)(5-methyl-6-(2-morpholinoethyl)-61-1-thieno[2,3-b]pyrrol-2-yl)methanone]
- IC50 [1]: 100 to 1000 nM
- EC50 [2]: 100 to 1000 nM
- EC50 [3]: < 100 nM

Compound: Cc1cc2cc(C(=O)c3cc(Cl)ccc3Cl)sc2n1CCN1CCOCC1 [Compound 35, (2,5-Dichlorophenyl)(5-methyl-6-(2-morpholinoethyl)-6H-thieno[2,3-b]pyrrol-2-yl)methanone]
- IC50 [1]: 100 to 1000 nM
- hCB1 EC50 (cAMP ag, nM) [2]: NS (NS means “Not Significant,” which means less than 30% agonist activity when compared to the positive control.)
- EC50 [3]: < 100 nM

Compound: COCCN(C)CCn1c(C)cc2cc(C(=O)c3ccc(OC)nc3)sc21 [Compound 157]
- IC50 [1]: 100 to 1000 nM
- hCB1 EC50 (cAMP ag, nM) [2]: NS (NS means “Not Significant,” which means less than 30% agonist activity when compared to the positive control.)
- EC50 [3]: < 100 nM

Compound: Cc1cc2cc(C(=O)c3ccc(OC(C)C)cc3)sc2n1CCN1CCOCC1 [Compound 111, (4-Isopropoxyphenyl)(5-methyl-6-(2-morpholinoethyl)-6H-thieno[2,3-b]pyrrol-2-yl)methanone]
- IC50 [1]: 1000 to 10000 nM
- hCB1 EC50 (cAMP ag, nM) [2]: NS (NS means “Not Significant,” which means less than 30% agonist activity when compared to the positive control.)
- EC50 [3]: < 100 nM

Compound: COc1ccc(C(=O)c2cc3cc(C)n(CCCNS(C)(=O)=O)c3s2)cn1 [Compound 109, N-(3-(2-(6-Methoxynicotinoyl)-5-methyl-6H-thieno[2,3-b]pyrrol-6-yl)propyl)methanesulfonamide]
- IC50 [1]: > 10000 nM
- hCB1 EC50 (cAMP ag, nM) [2]: NS (NS means “Not Significant,” which means less than 30% agonist activity when compared to the positive control.)
- EC50 [3, 4]: < 100 nM

Compound: COc1ccc(C(=O)c2cc3cc(C)n(CCN4CCOCC4)c3s2)c(C)c1 [Compound 88, (4-Methoxy-2-methylphenyl)(5-methyl-6-(2-morpholinoethyl)-6H-thieno[2,3-b]pyrrol-2-yl)methanone]
- IC50 [1]: 100 to 1000 nM
- EC50 [2]: 100 to 1000 nM
- EC50 [3]: < 100 nM

Compound: Cc1cc2cc(C(=O)c3ccc(N(C)C(=O)OC(C)(C)C)cc3)sc2n1CCN1CCOCC1 [Compound 132, tert-butylmethyl(4-(5-methyl-6-(2-morpholinoethyl)-6H-thieno[2,3-b]pyrrole-2-carbonyl)phenyl)carbamate]
- IC50 [1]: 1000 to 10000 nM
- hCB1 EC50 (cAMP ag, nM) [2]: NS (NS means “Not Significant,” which means less than 30% agonist activity when compared to the positive control.)
- EC50 [3]: 100 to 1000 nM

Compound: Cc1cc2cc(C(=O)c3cccc(Cl)c3Cl)sc2n1CCC1CCOCC1 [Compound 18, (2,3-Dichlorophenyl)(5-methyl-6-(2-(tetrahydro-2H-pyran-4-yl)ethyl)-6H-thieno[2,3-b]pyrrol-2-yl)methanone]
- IC50 [1]: 100 to 1000 nM
- EC50 [2]: 100 to 1000 nM
- EC50 [3]: < 100 nM

Compound: COCCn1c(C)cc2cc(C(=O)c3ccc(OC)cc3)sc21 [Compound 49, (6-(2-Methoxyethyl)-5-methyl-6H-thieno[2,3-b]pyrrol-2-yl)(4-methoxyphenyl)methanone]
- IC50 [1]: > 10000 nM
- hCB1 EC50 (cAMP ag, nM) [2]: NS (NS means “Not Significant,” which means less than 30% agonist activity when compared to the positive control.)
- EC50 [3]: 100 to 1000 nM

Compound: COc1ccc(C(=O)c2cc3cc(C)n(CCCN4CCOCC4)c3s2)cc1 [Compound 107, (4-Methoxyphenyl)(5-methyl-6-(3-morpholinopropyl)-6H-thieno[2,3-b]pyrrol-2-yl)methanone]
- IC50 [1]: 100 to 1000 nM
- EC50 [2]: 100 to 1000 nM
- EC50 [3, 4]: < 100 nM

Compound: Cc1cc2cc(C(=O)c3ccc(N(C)C)cc3)sc2n1CCN1CCOCC1 [Compound 59, (4-(Dimethylamino)phenyl)(5-methyl-6-(2-morpholinoethyl)-6H-thieno[2,3-b]pyrrol-2-yl)methanone]
- IC50 [1]: > 10000 nM
- hCB1 EC50 (cAMP ag, nM) [2]: NS (NS means “Not Significant,” which means less than 30% agonist activity when compared to the positive control.)
- EC50 [3]: 100 to 1000 nM

Compound: COc1ccc(C(=O)c2cc3cc(C)n(Cc4ccncc4)c3s2)cc1 [Compound 112, (4-Methoxyphenyl)(5-methyl-6-(pyridin-4-ylmethyl)-6H-thieno[2,3-b]pyrrol-2-yl)methanone]
- IC50 [1]: 1000 to 10000 nM
- hCB1 EC50 (cAMP ag, nM) [2]: NS (NS means “Not Significant,” which means less than 30% agonist activity when compared to the positive control.)
- EC50 [3]: 100 to 1000 nM

Compound: COc1ccc(C(=O)c2cc3cc(C)n(CC4CCOCC4)c3s2)cn1 [Compound 144, (6-methoxypyridin-3-yl)(5-methyl-6-((tetrahydro-2H-pyran-4-yl)methyl)-6H-thieno[2,3-b]pyrrol-2-yl)methanone]
- IC50 [1]: 1000 to 10000 nM
- hCB1 EC50 (cAMP ag, nM) [2]: NS (NS means “Not Significant,” which means less than 30% agonist activity when compared to the positive control.)
- EC50 [3]: < 100 nM

Compound: COc1ccc(C(=O)c2cc3cc(C)n(CCN4CCOCC4)c3s2)cc1Cl [Compound 116, (3-Chloro-4-methoxyphenyl)(5-methyl-6-(2-morpholinoethyl)-6H-thieno[2,3-b]pyrrol-2-yl)methanone]
- IC50 [1]: 1000 to 10000 nM
- hCB1 EC50 (cAMP ag, nM) [2]: NS (NS means “Not Significant,” which means less than 30% agonist activity when compared to the positive control.)
- EC50 [3]: < 100 nM

Compound: Cc1ccc(C(O)c2cc3cc(C)n(CCN4CCOCC4)c3s2)cn1 (stereo not drawn) [Compound 125, (5-Methyl-6-(2-morpholinoethyl)-6H-thieno[2,3-b]pyrrol-2-yl)(6-methylpyridin-3-yl)methanol]
- IC50 [1]: > 10000 nM
- hCB1 EC50 (cAMP ag, nM) [2]: NS (NS means “Not Significant,” which means less than 30% agonist activity when compared to the positive control.)
- EC50 [3]: 100 to 1000 nM

Compound: Cc1cc2cc(C(=O)c3cccc(Cl)c3Cl)sc2n1CCN1CCCCC1 [Compound 23, (2,3-Dichlorophenyl)(5-methyl-6-(2-(piperidin-1-yl)ethyl)-6H-thieno[2,3-b]pyrrol-2-yl)methanone]
- IC50 [1]: 100 to 1000 nM
- hCB1 EC50 (cAMP ag, nM) [2]: NS (NS means “Not Significant,” which means less than 30% agonist activity when compared to the positive control.)
- EC50 [3]: < 100 nM

Compound: COc1ccc(C(=O)c2cc3cc(C)n(CC4CCOCC4)c3s2)c(F)c1 [Compound 145, (2-fluoro-4-methoxyphenyl)(5-methyl-6-((tetrahydro-2H-pyran-4-yl)methyl)-6H-thieno[2,3-b]pyrrol-2-yl)methanone]
- IC50 [1]: 1000 to 10000 nM
- EC50 [2]: 1000 to 10000 nM
- EC50 [3]: < 100 nM

Compound: COc1ccc(C(O)c2cc3cc(C)n(CCN4CCOCC4)c3s2)cc1 (stereo not drawn) [Compound 100, (4-Methoxyphenyl)(5-methyl-6-(2-morpholinoethyl)-6H-thieno[2,3-b]pyrrol-2-yl)methanol]
- IC50 [1]: 1000 to 10000 nM
- hCB1 EC50 (cAMP ag, nM) [2]: NS (NS means “Not Significant,” which means less than 30% agonist activity when compared to the positive control.)
- EC50 [3, 4]: < 100 nM

Compound: COc1ccc(C(=O)c2cc3cc(C)n(CCN4CCCCC4)c3s2)c(F)c1 [Compound 98, (2-Fluoro-4-methoxyphenyl)(5-methyl-6-(2-(piperidin-1-yl)ethyl)-6H-thieno[2,3-b]pyrrol-2-yl)methanone]
- IC50 [1]: 1000 to 10000 nM
- hCB1 EC50 (cAMP ag, nM) [2]: NS (NS means “Not Significant,” which means less than 30% agonist activity when compared to the positive control.)
- EC50 [3]: < 100 nM

Compound: COc1ccc(C(=O)c2cc3cc(C)n(CCNS(C)(=O)=O)c3s2)cc1 [Compound 71, N-(2-(2-(4-Methoxybenzoyl)-5-methyl-6H-thieno[2,3-b]pyrrol-6-yl)ethyl)methanesulfonamide]
- IC50 [1]: > 10000 nM
- hCB1 EC50 (cAMP ag, nM) [2]: NS (NS means “Not Significant,” which means less than 30% agonist activity when compared to the positive control.)
- EC50 [3]: 100 to 1000 nM

Compound: Cc1cc2cc(C(=O)c3ccccc3OC(F)(F)F)sc2n1CCN1CCOCC1 [Compound 15, (5-Methyl-6-(2-morpholinoethyl)-6H-thieno[2,3-b]pyrrol-2-yl)(2-(trifluoromethoxy)phenyl)methanone]
- IC50 [1]: < 100 nM
- EC50 [2]: 100 to 1000 nM
- EC50 [3]: < 100 nM
